Measurements taken from patent US20250340561A1, “QUINAZOLINE COMPOUND FOR INDUCING DEGRADATION OF G12D MUTANT KRAS PROTEIN” (Astellas Pharma Inc., priority 2021, published 2025).
Like-named read-outs stand apart in the source and are kept apart here.

Key:
[1] = system: human G12D mutant KRAS-positive pancreatic cancer line AsPC-1; experiment: Test Example 3: non-anchorage-dependent cell growth inhibition, spheroid 3D cell culture; format: cell-based; details: Homo sapiens, ASPC1, 144 h, AsPC-1 spheroid 3D culture, 6 days, CellTiter Glo 2.0
Protocol: Test Example 3: Evaluation of Non-Anchorage-Dependent Cell Growth Inhibition Action on Human G12D Mutant KRAS-Positive Pancreatic Cancer Line AsPC-1
The non-anchorage-dependent cell growth inhibition action of test compounds was evaluated by spheroid 3D cell culture.
AsPC-1 cells were seeded on a low-cell-adhesive round bottom 384-well plate (PrimeSurface: from Sumitomo Bakelite) at 36 μL/well to give 5×10^2 cells per well. The cell culture was performed under the same conditions as in the Test Example 2.
The next day, the test compounds (6 points having final concentrations in the range of 10 μM to 3.0 nM) and DMSO, which was the solvent for the test compounds, as a negative control were diluted 100-fold with a fresh medium and were added at 4 μL per well. After culturing in the presence of […] at 37° C. for 6 days, CellTiter Glo 2.0 (from Promega) was added at 20 μL per well. After stirring with a plate mixer (from FINEPCR) at normal temperature for 1 hour, the luminescent signals were measured with ARVO X3 (from PerkinElmer).
With the signaling value in treatment with DMSO taken as […] and with the signaling value in the medium alone without cells taken as […], the […] inhibition values (IC50) were calculated by Sigmoid-Emax model nonlinear regression analysis. The molecular weights of the test compounds were calculated as the molecular weights of the dihydrochloride for Example No. 22, the trihydrochlorides for Example Nos. 2-7, 9-12, 14-18 and 30, the tetrahydrochlorides for Example Nos. 19 and 46, the pentahydrochloride for Example No. 21 and the free forms forming no salt for the remaining Example Nos. The results for some test compounds of the formula (I) are shown in Table 4.

[2] = system: phosphorylation of ERK (Thr202/Tyr204); experiment: Test Example 2: ERK phosphorylation inhibition action in AsPC-1, Cell ELISA; format: cell-based, human; details: Homo sapiens, ASPC1, 24 h, AsPC-1 cells, 0% = 1 μM trametinib
Protocol: Test Example 2: Evaluation of ERK Phosphorylation Inhibition Action on Human G12D Mutant KRAS-Positive Pancreatic Cancer Line AsPC-1
The ERK phosphorylation inhibition action of test compounds was evaluated by measuring phosphorylation of the 202th threonine (Thr202) and the 204th tyrosine (Tyr204) of ERK located downstream of the KRAS signal by Cell ELISA.
AsPC-1 cells were seeded on a 384-well plate (from Greiner bio-one) at 36 μL/well to give 2.0×10^4 cells per well. As for the cell culture conditions, a RPMI 1640 medium containing 10% fetal bovine serum was used in the presence of 5% CO2 at 37° C.
The next day, the test compounds (6 points having final concentrations in the range of 10 μM to 3.0 nM), trametinib (MEK inhibitor) of a final concentration of 1 μM as a positive control and DMSO, which was the solvent for the test compounds, as a negative control were diluted 100-fold with a fresh medium and were added at 4 μL per well. The cells were then cultured for 24 hours. After culturing, a 30% glyoxal solution (40% glyoxal [from Nacalai Tesque] was diluted with PBS) was quickly added at 30 μL per well, and the plate was allowed to stand for 90 minutes at room temperature to thus immobilize the cells. Then, the plate was centrifuged to remove the supernatant (using a centrifugal dehydrator machine, the supernatant was removed by the same method hereinafter), and 0.1% Triton X-100-containing PBS was added at 20 μL per well. After allowing to stand for 10 minutes at room temperature, the supernatant was removed by centrifugation, and the same operation was further repeated. Next, 0.5% SDS-containing PBS was added at 20 μL per well, and after allowing to stand at room temperature for 30 minutes, the supernatant was removed by centrifugation. Subsequently, a blocking solution (Intercept Blocking Buffer) was added at 20 μL per well, and the plate was allowed to stand for 1 hour at room temperature. The supernatant was removed by centrifugation, and an ERK (Thr202/Tyr204) phosphorylation antibody (Phospho-p44/42 MAPK (Erk 1/2) (Thr202/Tyr204) (D13.14.4E) XP Rabbit mAb; from Cell Signaling Technology) diluted 2,500-fold with a blocking solution was added at 10 or 15 μL per well as a primary antibody. The plate was allowed to stand at 4° C. overnight.
The next day, the plate was centrifuged to remove the supernatant. 0.05% Tween-20-containing PBS was added at 50 μL per well, and the supernatant was removed by centrifugation to thus wash each well. The washing was performed three times in total. After washing, Goat anti-Rabbit IgG H&L (IRDye 800CW) diluted 1,000-fold with a blocking solution was added at […] as a secondary antibody, and the plate was allowed to stand for 1 hour at room temperature. The plate was centrifuged to remove the supernatant, and each well was washed three times with 0.05% Tween-20-containing PBS in the same manner as after the primary antibody reaction. After removing the supernatant by centrifuging the plate, the plate was dried as it was with air at room temperature for 3 hours or more, and the 800-nm fluorescent signals were measured with Aerius.
With the signaling value at the time of addition of DMSO taken as 100% and with the signaling value at the time of addition of 1 μM trametinib taken as 0%, the 50% inhibition values (IC50) were calculated by Sigmoid-Emax model nonlinear regression analysis. The molecular weights of the test compounds were calculated as the molecular weights of the dihydrochloride for Example No. 22, the trihydrochlorides for Example Nos. 2-7, 9-12, 14-18 and 30, the tetrahydrochlorides for Example Nos. 19 and 46, the pentahydrochloride for Example No. 21 and the free forms forming no salt for the remaining Example Nos. The results for some test compounds of the formula (I) are shown in Table 3.

| Structure (SMILES) | IC50 [1] | IC50 [2] | IC50 ([1]; read-out: IC50) | IC50 ([2]; read-out: IC50) |
| --- | --- | --- | --- | --- |
| Cc1ncsc1-c1ccc([C@H](CO)NC(=O)[C@@H]2C[C@@H](O)CN2C(=O)[C@H](C(C)C)n2cc(-c3ccc(COc4c(-c5c(C)c(F)cc6[nH]ncc56)c(C5CC5)cc5c(N6C[C@@H]7C[C@H]6CN7)nc(OC6CCOCC6)nc45)cc3F)nn2)cc1 [Example 49, (4R)-1-[(2S)-2-(4-{4-[({6-cyclopropyl-4-[(1S,4S)-2,5-diazabicyclo[2.2.1]heptan-2-yl]-7-(6-fluoro-5-methyl-1H-indazol-4-yl)-2-[(oxan-4-yl)oxy]quinazolin-8-yl}oxy)methyl]-2-fluorophenyl}-1H-1,2,3-triazol-1-yl)-3-methylbutanoyl]-4-hydroxy-N-{(1R)-2-hydroxy-1-[4-(4-methyl-1,3-thiazol-5-yl)phenyl]ethyl}-L-prolinamide] | 46 nM | 21 nM | – | – |
| Cc1ncsc1-c1ccc([C@H](CO)NC(=O)[C@@H]2C[C@@H](O)CN2C(=O)[C@H](C(C)C)n2cc(-c3ccc(COc4c(-c5c(C)c(F)cc6[nH]ncc56)c(C5CC5)cc5c(N6C[C@@H]7C[C@H]6CN7)nc(O[C@@H]6CCN(CC(F)F)C6)nc45)cc3)nn2)cc1 [Example 34] | 33 nM | 26 nM | – | – |
| Cc1ncsc1-c1ccc([C@H](CO)NC(=O)[C@@H]2C[C@@H](O)CN2C(=O)[C@H](C(C)C)n2cc(-c3ccc(COc4c(-c5c(C)c(F)cc6[nH]ncc56)c(C5CC5)cc5c(N6C[C@@H]7C[C@H]6CN7)nc(OC[C@H]6CCCN6C)nc45)cc3)nn2)cc1 [Example 60] | 127 nM | 50 nM | – | – |
| Cc1ncsc1-c1ccc([C@H](CO)NC(=O)[C@@H]2C[C@@H](O)CN2C(=O)[C@H](C(C)C)n2cc(-c3ccc(COc4c(-c5c(C)c(F)cc6[nH]ncc56)c(C5CC5)cc5c(N6C[C@@H]7C[C@H]6CN7)nc(O[C@H](C)CN(C)C)nc45)cc3)nn2)cc1 [Example 46] | 56 nM | 22 nM | – | – |
| CCc1ccncc1Oc1nc(N2C[C@@H]3C[C@H]2CN3)c2cc(C3CC3)c(-c3c(C)c(F)cc4[nH]ncc34)c(OCc3ccc(-c4cn([C@H](C(=O)N5C[C@H](O)C[C@H]5C(=O)N[C@@H](CO)c5ccc(-c6scnc6C)cc5)C(C)C)nn4)cc3)c2n1 [Example 25] | 66 nM | 15 nM | – | – |
| Cc1ncsc1-c1ccc([C@H](CO)NC(=O)[C@@H]2C[C@@H](O)CN2C(=O)[C@H](C(C)C)n2cc(-c3ccc(COc4c(-c5c(C)c(F)cc6[nH]ncc56)c(C5CC5)cc5c(N6C[C@@H]7C[C@H]6CN7)nc(OCC6(CO)CC6)nc45)cc3)nn2)cc1 [Example 61] | 61 nM | 24 nM | – | – |
| Cc1ncsc1-c1ccc([C@H](CF)NC(=O)[C@@H]2C[C@@H](O)CN2C(=O)[C@H](C(C)C)n2cc(-c3ccc(COc4c(-c5c(C)c(F)cc6[nH]ncc56)c(C5CC5)cc5c(N6C[C@@H]7C[C@H]6CN7)nc(OC6CCOCC6)nc45)cc3)nn2)cc1 [Example 17] | – | – | 104 nM | 36 nM |
| Cc1ncsc1-c1ccc([C@H](CO)NC(=O)[C@@H]2C[C@@H](O)CN2C(=O)[C@H](C(C)C)n2cc(-c3ccc(COc4c(-c5c(C)c(F)cc6[nH]ncc56)c(C5CC5)cc5c(N6C[C@@H]7C[C@H]6CN7)nc(OCC67CCCN6CCC7)nc45)cc3)nn2)cc1 [Example 44] | 266 nM | 95 nM | – | – |
| Cc1ncsc1-c1ccc([C@H](CN(C)C)NC(=O)[C@@H]2C[C@@H](O)CN2C(=O)[C@H](C(C)C)n2cc(-c3ccc(COc4c(-c5c(C)c(F)cc6[nH]ncc56)c(C5CC5)cc5c(N6C[C@@H]7C[C@H]6CN7)nc(OC6CCOCC6)nc45)cc3)nn2)cc1 [Example 19] | – | – | 138 nM | 51 nM |
| Cc1c(F)cc2[nH]ncc2c1-c1c(C2CC2)cc2c(N3C[C@@H]4C[C@H]3CN4)nc(OC3CCOCC3)nc2c1OCc1ccc(-c2cn([C@H](C(=O)N3C[C@H](O)C[C@H]3C(=O)N[C@@H](CO)c3ccc(N4CCOC4=O)cc3)C(C)C)nn2)cc1 [Example 20, (4R)-1-[(2S)-2-(4-{4-[({6-cyclopropyl-4-[(1S,4S)-2,5-diazabicyclo[2.2.1]heptan-2-yl]-7-(6-fluoro-5-methyl-1H-indazol-4-yl)-2-[(oxan-4-yl)oxy]quinazolin-8-yl}oxy)methyl]phenyl}-1H-1,2,3-triazol-1-yl)-3-methylbutanoyl]-4-hydroxy-N-{(1R)-2-hydroxy-1-[4-(2-oxo-1,3-oxazolidin-3-yl)phenyl]ethyl}-L-prolinamide] | – | – | 79 nM | 36 nM |
| Cc1c(F)cc2[nH]ncc2c1-c1c(C2CC2)cc2c(N3C[C@@H]4C[C@H]3CN4)nc(OC3CCOCC3)nc2c1OCc1ccc(-c2cn([C@H](C(=O)N3C[C@H](O)C[C@H]3C(=O)N[C@@H](CO)c3ccccc3F)C(C)C)nn2)cc1 [Example 30] | 323 nM | 185 nM | – | – |
| COC[C@@H](C)Oc1nc(N2C[C@@H]3C[C@H]2CN3)c2cc(C3CC3)c(-c3c(C)c(F)cc4[nH]ncc34)c(OCc3ccc(-c4cn([C@H](C(=O)N5C[C@H](O)C[C@H]5C(=O)N[C@@H](CO)c5ccc(-c6scnc6C)cc5)C(C)C)nn4)cc3)c2n1 [Example 40] | 20 nM | 7 nM | – | – |
| CO[C@H](C)COc1nc(N2C[C@@H]3C[C@H]2CN3)c2cc(C3CC3)c(-c3c(C)c(F)cc4[nH]ncc34)c(OCc3ccc(-c4cn([C@H](C(=O)N5C[C@H](O)C[C@H]5C(=O)N[C@@H](CO)c5ccc(-c6scnc6C)cc5)C(C)C)nn4)cc3)c2n1 [Example 47] | 22 nM | 18 nM | – | – |
| CCn1nccc1-c1ccc([C@H](CO)NC(=O)[C@@H]2C[C@@H](O)CN2C(=O)[C@H](C(C)C)n2cc(-c3ccc(COc4c(-c5c(C)c(F)cc6[nH]ncc56)c(C5CC5)cc5c(N6C[C@@H]7C[C@H]6CN7)nc(OC[C@H](C)OC)nc45)cc3)nn2)cc1 [Example 70] | – | – | 21 nM | 12 nM |
| Cc1ncsc1-c1ccc([C@H](CO)NC(=O)[C@@H]2C[C@@H](O)CN2C(=O)[C@H](C(C)C)N2Cc3cc(COc4c(-c5c(C)c(F)cc6[nH]ncc56)c(C5CC5)cc5c(N6C[C@@H]7C[C@H]6CN7)nc(OC6CCOCC6)nc45)ccc3C2=O)cc1 [Example 4] | 670 nM | 522 nM | – | – |
| Cc1c(F)cc2[nH]ncc2c1-c1c(C2CC2)cc2c(N3C[C@@H]4C[C@H]3CN4)nc(OC3CCOCC3)nc2c1OCc1ccc(-c2cn([C@H](C(=O)N3C[C@H](O)C[C@H]3C(=O)N[C@@H](CO)c3cccc(F)c3)C(C)C)nn2)cc1 [Example 63] | 133 nM | 72 nM | – | – |
